US8642545B2, “Erythropoietin mimetic peptide derivative and its pharmaceutical salts, the preparation and uses thereof” (Jiangsu Hansoh Pharmaceutical Co., Ltd, priority 2007, dated 2014)
Read-outs that look alike come from different tables or passages of the source. *1 amine or outer side, *2 acyl side, *3 side chain or, on linkers, in order; H or OH if unused. Bridges are numbered along the chain shown (N, C = ends). Roman numbers before positions name the chains, in order. [ ]: non-standard residue; d: D form. ξ: configuration not given here. X1 = NCCNC(=O)OC(CCC(=O)[*:1])CCC(=O)[*:2]; Nle = CCCC[C@H](N)C(=O)O; ξK = NCCCCC(N)C(=O)O; βAla = NCCC(=O)O

Key:
[1] = tested on: erythropoiesis of mice; experiment: Effects of EPO mimetic peptide derivatives on mice, sc injection on three consecutive days, peripheral blood cell and reticulocyte counts; assay type: in vivo, Kunming mice; conditions: for Platelet / White Blood Cell: 4.5 mg/kg
Description: The biological activity of EPO, or EPO mimetic peptide derivatives and their pharmaceutical salts provided by this invention can be determined by various assays known in this field. Testing of in vivo activity is performed as follows: mice are subcutaneously injected with EPO and EPO mimetic peptide derivatives and their pharmaceutical salts provided by this invention on three consecutive days. The mice are then sacrificed. The whole blood is taken to carry out peripheral blood cells and reticulocyte count. The blood cell count is performed by automatic blood cell counter. […] The dose of EPO protein as a control drug is 240 μ/kg. The drugs are administered three times per week and the administration continues for six weeks. The blood samples are collected to carry out related hematological index analysis. The purpose of the experiments is to evaluate and compare the effects of EPO mimetic peptide derivatives and the EPO protein on erythropoiesis of mice. […] EPO is purchased from […] Pharmaceutical Co., Ltd. Kunming mice are purchased from the Chinese Academy of Sciences Shanghai Experimental Animal Center, weighing 25 30 g, ♀. The number of animals in each group is 10. Mice are injected subcutaneously with EPO mimetic peptide derivatives and EPO protein for three consecutive days. Then the mice are killed, the whole blood is used to carry out peripheral blood cells and reticulocyte counts. Blood cell count is performed using automatic blood cell counter counts.

[2] = tested on: erythropoiesis of the macaques; experiment: Effects of EPO mimetic peptide derivatives on macaques, hematological indexes; assay type: in vivo
Description: The biological activity of EPO, or EPO mimetic peptide derivatives and their pharmaceutical salts provided by this invention can be determined by various assays known in this field. Testing of in vivo activity is performed as follows: mice are subcutaneously injected with EPO and EPO mimetic peptide derivatives and their pharmaceutical salts provided by this invention on three consecutive days. The mice are then sacrificed. The whole blood is taken to carry out peripheral blood cells and reticulocyte count. The blood cell count is performed by automatic blood cell counter. Pharmacodynamic studies are carried out by intravenous administration to macaques with a dose of 1.35 mg/kg. The dose of EPO protein as a control drug is 240 μ/kg. The drugs are administered three times per week and the administration continues for six weeks. The blood samples are collected to carry out related hematological index analysis.
The purpose of this experiment is to evaluate the effects of EPO mimetic peptide derivatives on erythropoiesis of the macaques.
EPO mimetic peptide HH-EPO-018 is provided by Jiangsu Hansoh Pharmaceutical co., LTD. EPO is purchased from Shenyang Sansheng Pharmaceutical Co., Ltd. The samples are diluted in a saline containing 0.1% BSA before they are used.
Macaques, weighing 5.5˜8.5 kg, male or female, are purchased from Suzhou Xishan Zhongke Laboratory Animal Center. Macaques are grouped according to the basis of hemoglobin with each group having three macaques. HH-EPO-018 is intravenously injected once at a dose of 1.35 mg/kg; EPO is injected three times per week at a dose of 240 μg/kg. The administration is continued for five weeks. Measure hematological indexes are measured 1˜2 times per week.

[3] = tested on: EPO binding sites on immature red blood cells; conditions: cited from earlier work
[4] = tested on: EPO binding sites on red blood cells from the spleen; conditions: about 400 binding sites, some, cited from earlier work
[5] = current dosage regimen, three consecutive days
[6] = macaques, 240 μg/kg three times per week, five weeks

In the case of “I: Ac-GGTYSCHFGALTWVCRPQRG[βAla][ξK]-NH2 / II: Ac-GGTYSCHFGALTWVCRPQRG[βAla][ξK]-NH2 (disulfide I:6-I:15, II:6-II:15; linker I:22-II:22 via X1) [HH-EPO-008]”, the Platelet ([1]; mouse, d1-3) is reported as 1685.5 ± 351.3 ×10^3/μL and the “White Blood Cell” value ([1]; mouse, d1-3) is reported as 2.9 ± 0.5 ×10^3/μL.
With “I: Ac-GGTYSCHFGPLTWVCRPQRG[βAla][ξK]-NH2 / II: Ac-GGTYSCHFGPLTWVCRPQRG[βAla][ξK]-NH2 (disulfide I:6-I:15, II:6-II:15; linker I:22-II:22 via X1) [HH-EPO-005]” the Platelet ([1]; mouse, d1-3) was 1957.8 ± 349.5 ×10^3/μL and the “White Blood Cell” value ([1]; mouse, d1-3) was 4.2 ± 1.2 ×10^3/μL.
For “EPO: EPO protein purchased from Shenyang Sansheng Pharmaceutical Co., Ltd.; control drug”, the “influence on mature red blood cells, blood cell hematocrit, hemoglobin content (in words)” value [1, 5] was “no significant influence”, the “mouse peripheral blood reticulocyte count (in words)” value [1, 5] was “significantly promote the increase” and the “Blood Cell Hematocrit” value ([1]; mouse, 5 μg/kg, d1-3) was 46.2 ± 2.7%. The “Red Blood Cell Count” value ([1]; mouse, 5 μg/kg, d1-3, x ± SD) was 9.0 ± 0.6 ×10^6/μL, the “Reticulocyte Count” value ([1]; mouse, 5 μg/kg, d1-3, x ± SD) was 483.9 ± 146.5 ×10^9/L and the “influence on the peripheral white blood cell count (in words)” value ([1]; mouse, in vivo) was “no significant influence”. For the same substance, the “stimulation on macaque hemoglobin generation, HH-EPO-018 compared with EPO (in words)” value ([2]; according to the current dosing regimens) was “similar”, the “blood cell hematocrit (in words)” value [2, 6] was “increases” and the “peripheral blood hemoglobin content (in words)” value [2, 6] was “increases”. The Kd ([3]; about 300 binding sites of about 800 to 1000 per cell membrane) was 0.09 nM, the Kd ([3]; remaining binding sites, weak binding) was ~0.57 nM and the Kd ([4]; "high Kd") was 0.1 nM. For the same substance, the Kd ([4]; "low Kd") was 0.8 nM.
In the case of “I: Ac-GGTYSCHFGSLTWVCRPQRG[βAla][ξK]-NH2 / II: Ac-GGTYSCHFGSLTWVCRPQRG[βAla][ξK]-NH2 (disulfide I:6-I:15, II:6-II:15; linker I:22-II:22 via X1) [HH-EPO-007]”, the Platelet ([1]; mouse, d1-3) is reported as 2082.1 ± 863.9 ×10^3/μL and the “White Blood Cell” value ([1]; mouse, d1-3) is reported as 3.6 ± 0.8 ×10^3/μL.
With “I: Ac-GGTYSC[Nle]FGPLTWVCRPQRG[βAla][ξK]-NH2 / II: Ac-GGTYSC[Nle]FGPLTWVCRPQRG[βAla][ξK]-NH2 (disulfide I:6-I:15, II:6-II:15; linker I:22-II:22 via X1) [HH-EPO-006]” the Platelet ([1]; mouse, d1-3) was 1087.8 ± 118.5 ×10^3/μL and the “White Blood Cell” value ([1]; mouse, d1-3) was 4.1 ± 1.2 ×10^3/μL.
